We go through two molecules from BindingDB's records for doi:10.1021/bi00445a011 (Harvard University, 1989).

The structures appear in SMILES notation.

For the assay, the target named is T1, 3-dehydroquinate synthase (Escherichia coli (strain K12), UniProt P07639).
T1 sequence (P07639 whole entry): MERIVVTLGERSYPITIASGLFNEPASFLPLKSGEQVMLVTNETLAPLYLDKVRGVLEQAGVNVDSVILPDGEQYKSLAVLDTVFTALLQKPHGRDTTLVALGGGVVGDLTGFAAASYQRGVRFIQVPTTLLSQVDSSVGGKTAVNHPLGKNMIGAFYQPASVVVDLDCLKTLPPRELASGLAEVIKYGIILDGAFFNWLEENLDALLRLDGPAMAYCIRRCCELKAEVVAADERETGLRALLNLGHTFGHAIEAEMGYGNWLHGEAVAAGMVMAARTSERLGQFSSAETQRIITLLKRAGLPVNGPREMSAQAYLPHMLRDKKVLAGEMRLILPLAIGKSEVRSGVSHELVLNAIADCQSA
Briefly: Enzyme Inhibition. An excerpt:
Enzyme inhibition using dehydroquinate synthase.

One may read the Ki as a measure of affinity in units of concentration, obtained from inhibition or displacement. Read a low Ki as tighter binding. `O=C(O)C1CC(O)C(O)C(CP(=O)(O)O)O1` (configuration not stated) [4,5-dihydroxy-6-(phosphonatomethyl)oxane-2-carboxylate, 3] returned a Ki of 35 µM.

As for `O=C(O)C1(O)CC(O)C(O)C(CP(=O)(O)O)O1` (configuration not stated) [2,4,5-trihydroxy-6-(phosphonatomethyl)oxane-2-carboxylate, 4], the inhibitory constant (Ki) worked out at 0.12 µM.
